Measurements published in patent US8709745B2, “Methods for isolating ligands of the human bitter taste receptor TAS2R49” (Deutsches Institut für Ernährungsforschung Potsdam-Rehbrücke, priority 2009, dated 2014).
Entries after “also recorded” stand apart in the source; their conditions may differ. Counter-ions that a name gives are not always drawn.

Experiments:
[1] = target: T1, TAS2R49 human bitter taste receptor (Homo sapiens, UniProt P59543, K79E); assay: FLIPR calcium assay in HEK-293T Gα16gust44 cells transiently transfected with SST-hTAS2R49-HSV; assay type: cell-based; conditions: for activation of hTAS2R49 (calcium response): hTAS2R49 transfected vs mock transfected cells
T1 construct: first 45 amino acids of rat somatostatin receptor type 3 (SST), membrane-targeting signal (N); expressed in transfected cells; host or cells: HEK-293T cells stably expressing the chimeric G-protein alpha subunit Gα16gust44; vector pcDNA5/FRT
T1 sequence (P59543 1-309 K79E): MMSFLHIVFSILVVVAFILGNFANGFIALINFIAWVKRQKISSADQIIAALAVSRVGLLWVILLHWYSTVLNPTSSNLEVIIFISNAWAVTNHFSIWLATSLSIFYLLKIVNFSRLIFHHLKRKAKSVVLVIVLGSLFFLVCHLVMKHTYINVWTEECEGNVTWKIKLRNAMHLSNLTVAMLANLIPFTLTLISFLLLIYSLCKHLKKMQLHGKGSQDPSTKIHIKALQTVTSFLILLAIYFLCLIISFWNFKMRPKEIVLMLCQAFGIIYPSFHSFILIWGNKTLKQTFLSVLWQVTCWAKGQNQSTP
Excerpt: The TAS2R49 human bitter taste receptor was functional expressed in a heterologouse cell system. Therefore, the coding region for this hTAS2R was cloned into a vector (pcDNA5/FRT, Invitrogen, San Diego, Calif.). The construct includes the sequence for the first 45 amino acids of a rat somatostatin receptor type 3 (SST) coupled to the N-terminal end of the receptor for an improvement of receptor membrane targeting. At the C-terminus of the bitter taste receptor a herpes simplex virus glycoprotein D (HSV) epitope was added for immunocytochemical detection. The SST-hTAS2R49-HSV pcDNA5/FRT plasmid construct was transiently transfected into HEK-293T cells stably expressing the chimeric G-protein a subunit Gal6gust44. An empty pcDNA5/FRT plasmid /vector were used as negative control. The cells were seeded into 96-well plates (Greiner Bio-One, Frickenhausen, Germany) under conventional cell culture conditions (Dulbecco's Modified Eagle Medium (DMEM)/10% FCS/1% penicillin/streptomycin; 37° C., 5% CO2, 95% humidity) and 24-26 h later transfected with 150 ng plasmid DNA and 300 ng Lipofectamine 2000 (Invitrogen, San Diego, Calif.). 24-26 h later the cells were loaded with the calcium sensitive dye Fluo4-acetoxymethyl (Molecular Probes, Karlsruhe, Germany) with a final concentration of 20 μM in serum-free DMEM medium. The organic anion-transport inhibitor probenecid (Sigma Aldrich, München, Germany) was added to the dye/medium solution to reduce leakage of the indicator after cleavage of the ester bonds. 1 h after loading, the well plates were washed 3 times with 30 min incubation between the last second wash steps (protected from light) by Denley cell washer (Thermo Fisher Scientific Inc., Waltham, Mass.). The washing solution contains 130 mM NaCl, 5 mM KCl, 10 mM HEPES with pH 7.4, 2 mM CaCl2, and 10 mM Glucose. The agonist was solved and diluted in wash solution.
The elevation of the cytosolic calcium concentration was measured after application of the test substances using the Fluorometric Imaging Plate Reader (FLIPR, Molecular Devices, Munich, Germany) at […]. The vitality of the cells was verified by a second application of 100 nM somatostatin-14, an agonist of the endogenous […] somatostatin receptor type 2. To exclude unspecific responses and false positive signals, mock transfected cells were always measured on the same plate with the same compound concentration each. All experiments were performed at least twice. For the calculation of the dose-response function, the signals of the wells with the same concentration of the agonist were automatically normalized with the control wells (mock transfection, Fmock) by FLIPR384® software (Molecular Devices, Munich, Germany). To consider the dye loading efficiency and the cell number the background fluorescence was measured for each plate/each well and denoted as signal test. […] The calculation of the EC50 values were prepared in SigmaPlot 9.0 by nonlinear regression to the function f(x)=100/[1+(EC50/x)nH], where x is the agonist concentration and nH is the Hill coefficient.

[2] = vendor property list; cited from earlier work
[3] = averaged dose response curve (n=5), FIG. 1

| SMILES | EC50 [1, 3] | threshold [1, 3] | activation of hTAS2R49 (calcium response) [1] | activation of hTAS2R49 (calcium response) ([1]; listed as Diphenidol) | water solubility [2] |
| --- | --- | --- | --- | --- | --- |
| O=C(O)c1cc(=O)c2c(OCC(O)COc3cccc4oc(C(=O)O)cc(=O)c34)cccc2o1 [cromolyn] | 42 ± 13 µM | ~0.01 mM | responded robustly; also recorded: effective agonist of hTAS2R49 | – | – |
| OC(CCCN1CCCCC1)(c1ccccc1)c1ccccc1 [diphenidol] | – | – | activated the receptor | agonist for hTAS2R49 | – |
| O=C(O)c1cc(=O)c2c(OCC(O)COc3cccc4oc(C(=O)O)cc(=O)c34)cccc2o1 [Cromolyn sodium, disodium salt of 5,5′-[(2-hydroxytrimethylene)dioxy]bis[4-oxo-4H-1-benzopyran-2-carboxylate]] | – | – | – | – | water-soluble |
